Assay results reported in patent US5217950A, “Nisin compositions for use as enhanced, broad range bactericides” (Applied Microbiology, Inc., priority 1992, dated 1993).
Where no end group is shown, it is not given here.

Tests used:
K. pneumoniae = experiment: bactericidal activity: percent bacterial survival after treatment, suspension in buffer; assay type: cell-based, Klebsiella pneumoniae; settings: 20 mM Tris pH 8.0, 37° C
Method: (§1) All tests in the following examples were performed at 37° C. The efficacy of the enhanced broad range bactericides was determined by assaying bactericidal activity as measured by the percent bacterial survival after treatment with the bactericide. Generally, after incubation of a 10^7 cell per ml suspension of target species with the novel bactericide for specified lengths of time, bacteria were collected by centrifugation for 2 minutes. The bacterial pellet was washed free of the bactericide with a rescue buffer, termed herein Phage buffer (50 mM Tris-HCl buffer pH 7.8, 1 mM MgSO4, 4 mM CaCl2, 0.1M Nacl, and 0.1% gelatin), resuspended and serially diluted into Phage buffer, and 100 μl of the suspended bacteria were spread on nutrient agar plates. Surviving bacteria were determined by scoring colony forming units (CFU) after incubation for 24-48 hours at 37° C.
The effect was measured as a function of percentage bacterial survival after 2 hours.

Coryneform bacteria = experiment: bactericidal activity: percent bacterial survival in Tris buffer; assay type: cell-based, mixed population of axillary Coryneform bacteria; settings: 20 mM Tris-HCl pH 8.0
Method: as §1
(§2) Incubations were performed in 20 mM Tris-HCl, pH at 8.0 at 37° C.

Streptococcus mutans [1] = experiment: bactericidal activity and kinetics: percent bacterial survival in Tris buffer; assay type: cell-based; settings: for % Survival: 1.0 mM EDTA, nisin 0, 20 mM Tris-HCl pH 7.3
Method: Incubations were performed in 20 mM Tris-HCl, pH 8.0 at 37° C.
The suspensions were incubated for various times ranging from 0.5 to 60 minutes with the bactericides. The bactericidal efficacy of the bactericides was estimated by determining the percent survival of bacteria.
Incubations were performed in 20 mM Tris-HCl, pH 7.3 at 37° C.

S. typhimurium = experiment: bactericidal activity: percent bacterial survival after treatment, suspension in buffer; assay type: cell-based, Salmonella typhimurium
Method: as §1
The control (Test #1) is identical to the control of Example 1 (Table 1).

E. coli = experiment: as above; assay type: cell-based, Escherichia coli; settings: for Percentage E. coli Survival at 2 hours: 20 mM Tris pH 8.0, 37° C
Method: as §1
The effects of the bactericide were measured as a function of percentage bacteria survival after 2 hours.
Incubations were performed in 20 mM Tris-HCl, […] at 37° C.

Listeria monocytogenes [2] = experiment: bactericidal activity in milk; assay type: cell-based
Method: (§3) All tests in the following examples were performed at 37° C. The efficacy of the enhanced broad range bactericides was determined by assaying bactericidal activity as measured by the percent bacterial survival after treatment with the bactericide. Generally, after incubation of a 10^7 cell per ml suspension of target species with the novel bactericide for specified lengths of time, bacteria were collected by centrifugation for 2 minutes. The bacterial pellet was washed free of the bactericide with a rescue buffer, termed herein Phage buffer (50 mM Tris-HCl buffer pH 7.8, 1 mM MgSO4, 4 mM CaCl2, 0.1M Nacl, and 0.1% gelatin), resuspended and serially diluted into Phage buffer, and 100 μl of the suspended bacteria were spread on nutrient agar plates. Surviving bacteria were determined by scoring colony forming units (CFU) after incubation for 24-48 hours at 37° C. An effective bactericide according to this invention is one which allows less than 0.1% of the initial viable count of the bacteria to survive.
An example of where the application of nisin is limited by its available activity is illustrated by the data in Table 15B.
(§4) Incubations were in milk at 37° C.

Streptococcus agalactiae = experiment: bactericidal activity in milk; assay type: cell-based
Method: as §3
However, the combination of the two agents, 0.1% monolaurin and nisin 0.2 μg/ml, is extremely potent towards S. agalactiae. […] Thus, when the application of nisin is limited by its available activity, a bactericide comprising nisin with a surfactant can be expected to be more useful.
as §4

Staphylococcus aureus = experiment: bactericidal activity: percent bacterial survival, influence of pH and EDTA; assay type: cell-based
Method: as §3
Incubations were performed in 50 mM sodium acetate buffer, pH 5.0 or 20 m
TrisHCl buffer, pH 8.0 at 37° C.

Streptococcus mutans [3] = experiment: rapid bactericidal activity in the presence of divalent cation, 10% Fetal Calf Serum; assay type: cell-based; settings: Nisin 3, no EDTA, CaCl3 0 mM
Method: Incubations were performed in 10% Fetal Calf Serum at 37° C.

[4] = tested on: S. typhimurium on chicken muscle; experiment: bactericidal activity on inoculated chicken muscle, survival of unadhered cells; assay type: cell-based, Salmonella typhimurium
Method: as §3
Incubations were performed in either 50 mM sodium acetate, pH 5.0, or 20 mM Tris, pH 8.0 at 37° C.
Cubes of chicken muscle were cleansed with sodium hypochlorite and povidone iodine prior to use. To inoculate the tissue, the cubes of chicken muscle were dipped into a 10^8 cells/ml suspension of S. typhimurium in 20 mM Tris HCl, pH 8.0. Excess moisture was removed from dipped cubes by tapping. The chicken samples were placed into sufficient buffer containing the nisin composition to cover the tissue and incubated for 2 hours at 37° C. after which the tissue was removed to sufficient Phage buffer to cover the tissue. The bacteria remaining in the test solution were collected by centrifugation, washed with Phage buffer, and combined with bacteria washed from the tissue by Phage buffer. The combined samples (termed "unadhered" cells) were serially diluted and 100 μl aliquots were plated for determination of surviving bacteria.
(§5) Cubes of chicken muscle were cleansed with sodium hypochlorite and povidone iodine prior to use. To inoculate the tissue, the cubes of chicken muscle were dipped into a 10^8 cells/ml suspension of S. typhimurium in 20 mM Tris HCl, pH 8.0. Excess moisture was removed from dipped cubes by tapping. The tissue was placed into sufficient buffer containing the nisin compositions to cover the tissue, and incubated for 2 hours at 37° C. after which the tissue was removed to sufficient Phage buffer to cover the tissue. The bacteria remaining in the test solution were collected by centrifugation, washed with Phage buffer, and combined with bacteria washed from the tissue by Phage buffer. The combined samples (termed "unadhered" cells) were serially diluted and 100 μl aliquots were plated for determination of surviving bacteria.
as §5, with “cleaned” for “cleansed”, “50” for “20”, “sodium acetate buffer,” for “Tris HCl,”, “5.0.” for “8.0.”, “containing” for “containing the”

Listeria monocytogenes [5] = experiment: bactericidal activity: percent bacterial survival in Tris buffer; assay type: cell-based; settings: 20 mM Tris-HCl pH 8.0
Method: as §3, §2

## nisin (ITSISLCTPGCKTGALMGCNMKTATCHCSIHVSK; cysteine pairing not given here; also: lantibiotic, modifications not placed; UniProt P13068 24-57, looked up) [polypeptide bacteriocin with antimicrobial properties produced by strains of Streptococcus lactis]
K. pneumoniae; nisin 100 μg/ml, EDTA 0
  % Survival at 2 hours: 50%
K. pneumoniae; nisin 300 μg/ml, EDTA 0
  % Survival at 2 hours: 38%
Coryneform bacteria; nisin 3 μg/ml, EDTA 0
  % Survival 2 hr: 0.22%
Streptococcus mutans [1]; nisin 0.1 μg/ml, EDTA 0, 20 mM Tris-HCl pH 8.0
  % Survival after 2 hr: 4.3%
S. typhimurium; nisin 10 μg/ml, EDTA 0, BSA 0, Tris buffer (Table 8)
  % Survival at 2 hours: 51.3%
S. typhimurium; nisin 50 μg/ml, EDTA 0, 20 mM Tris pH 8.0, 37° C
  Percentage S. typhimurium Survival at 3 hours: 7.0%
S. typhimurium; nisin 100 μg/ml, EDTA 0, BSA 0, Tris buffer (Table 8)
  % Survival at 2 hours: 1.6%
S. typhimurium; nisin 100 μg/ml, EDTA 0, 20 mM Tris pH 8.0, 37° C
  Percentage S. typhimurium Survival at 3 hours: 1.6%
S. typhimurium; nisin 100 μg/ml, EDTA 0, 20 mM Tris pH 8.0, 37° C (Table 6)
  % Survival at 2 hours: 4%
S. typhimurium; nisin 100 μg/ml, EDTA 0, 50 mM sodium acetate pH 5.0, 37° C
  % Survival at 2 hours: 0.6%
E. coli; nisin 30 μg/ml, EDTA 0, Triton X-100 0
  Percentage E. coli Survival at 2 hours: 27%
E. coli; nisin 100 μg/ml, EDTA 0, Triton X-100 0
  Percentage E. coli Survival at 2 hours: 25%
E. coli; nisin 300 μg/ml, EDTA 0, Triton X-100 0
  Percentage E. coli Survival at 2 hours: 8.5%
Listeria monocytogenes [2]; nisin 100 μg/ml, Monooleate 0, 37° C
  % Survival 2 hr: 0.56%
Streptococcus agalactiae; nisin 0.02 μg/ml, Monolaurin 0, 37° C
  % survival at 2 h: 100%
Streptococcus agalactiae; nisin 0.2 μg/ml, Monolaurin 0, 37° C
  % survival at 2 h: 2.2%
Staphylococcus aureus; nisin 3.0 μg/ml, EDTA 0, pH 5.0
  % Survival 2 hr: 0.6%
Staphylococcus aureus; nisin 3.0 μg/ml, EDTA 0, pH 8.0
  % Survival 2 hr: 7.4%
Streptococcus mutans [3]
  % survival at 1 min.: 2.9%
[4]; nisin 300 μg/ml, EDTA 0, 1% Bovine serum albumin, 20 mM Tris pH 8.0
  % Survival at 2 hours (unadhered cells): 0.02%
[4]; nisin 300 μg/ml, EDTA 0, 20 mM Tris pH 8.0
  % Survival at 2 hours (unadhered cells): 7.5%
[4]; nisin 300 μg/ml, EDTA 0, 50 mM sodium acetate pH 5.0
  % Survival at 2 hours (unadhered cells): 0.1%
Listeria monocytogenes [5]; nisin 3.0 μ/ml, EDTA 0
  % Survival after 2 hr: 0.71%

## O=C([O-])CN(CCN(CC(=O)[O-])CC(=O)O)CC(=O)O.[Na+].[Na+] [EDTA]
K. pneumoniae; EDTA 20 mM, nisin 0
  % Survival at 2 hours: 22%
Coryneform bacteria; EDTA 0.3 mM, nisin 0
  % Survival 2 hr: 4.6%
Coryneform bacteria; EDTA 1.0 mM (last column, after 3.0), nisin 0
  % Survival 2 hr: 36%
Coryneform bacteria; EDTA 1.0 mM, nisin 0
  % Survival 2 hr: 3.6%
Coryneform bacteria; EDTA 3.0 mM, nisin 0
  % Survival 2 hr: 8%
Streptococcus mutans [1]; incubation 3 minutes
  % Survival: 100%
Streptococcus mutans [1]; incubation 60 minutes
  % Survival: 100%
S. typhimurium; EDTA 1.0 mM, BSA 1.0%, nisin 0, 20 mM Tris pH 8.0
  % Survival at 2 hours: 63%
S. typhimurium; EDTA 2.0 mM, nisin 0, 20 mM Tris pH 8.0, 37° C
  % Survival at 2 hours: 8.7%
S. typhimurium; EDTA 10 mM, nisin 0, 20 mM Tris pH 8.0, 37° C
  % Survival at 2 hours: 14%
S. typhimurium; EDTA 20 mM, nisin 0, 20 mM Tris pH 8.0, 37° C
  Percentage S. typhimurium Survival at 3 hours: 2.5%
S. typhimurium; EDTA 50 mM, nisin 0, 50 mM sodium acetate pH 5.0, 37° C
  % Survival at 2 hours: 3.5%
S. typhimurium; EDTA 100 mM, nisin 0, 20 mM Tris pH 8.0, 37° C
  % Survival at 2 hours: 45%
E. coli; EDTA 1.0 mM, nisin 0, 20 mM Tris-HCl pH 7.0
  % survival at 1 min.: 100%
Staphylococcus aureus; EDTA 0.3 mM, nisin 0, pH 8.0
  % Survival 2 hr: 100%
Staphylococcus aureus; EDTA 1.0 mM, nisin 0, pH 8.0
  % Survival 2 hr: 81%
Staphylococcus aureus; EDTA 3.0 mM, nisin 0, pH 5.0
  % Survival 2 hr: 100%
Staphylococcus aureus; EDTA 3.0 mM, nisin 0, pH 8.0
  % Survival 2 hr: 100%
Staphylococcus aureus; EDTA 10 mM, nisin 0, pH 8.0
  % Survival 2 hr: 100%
Staphylococcus aureus; EDTA 30 mM, nisin 0, pH 8.0
  % Survival 2 hr: 100%
[4]; EDTA 1.0 mM, BSA 1.0%, nisin 0, pH 8.0
  % Survival at 2 hours: 27%
[4]; EDTA 10 mM, nisin 0, 20 mM Tris pH 8.0
  % Survival at 2 hours (unadhered cells): 5.2%
[4]; EDTA 10 mM, nisin 0, 50 mM sodium acetate pH 5.0 (Table 7)
  % Survival at 2 hours (unadhered cells): 6.4%
Listeria monocytogenes [5]; EDTA 1.0 mM, nisin 0
  % Survival after 2 hr: 84%

## monooleate
Listeria monocytogenes [2]; Monooleate 0.1%, nisin 0, 37° C
  % Survival 2 hr: 67%
Listeria monocytogenes [2]; Monooleate 1.0%, nisin 0, 37° C
  % Survival 2 hr: 63%
Listeria monocytogenes [2]; monooleate by itself
  bactericidal activity towards L. monocytogenes: no bactericidal activity

## CCCCCCCCCCCC(=O)OCC(O)CO (stereo not drawn) [Monolaurin, monolaurin]
Streptococcus agalactiae; Monolaurin 0.01%, nisin 0, 37° C
  % survival at 2 h: 100%
Streptococcus agalactiae; Monolaurin 0.1%, nisin 0, 37° C
  % survival at 2 h: 4.5%

## Triton X-100
E. coli; Triton X-100 1.0%, nisin 0, EDTA 0
  Percentage E. coli Survival at 2 hours: 100%
E. coli; Triton X-100 1.0%, tests #3 and #4 of Table 4
  bactericidal activity towards E. coli: no significant bactericidal activity
